Patent publication US11634425B2, “Pharmaceutical compounds” (priority 2019, dated 2023)

Key:
RSV A2 = experiment: RSV plaque reduction assay; format: cell-based, respiratory syncytial virus (RSV); details: human respiratory syncytial virus, HepG2, Hep-G2 cells, mean of at least two experiments
Experimental: (§1) Compounds were subjected to RSV plaque reduction assays according to the following protocol. Plaque EC50 and cell toxicity CC50 values are a mean of at least two experiments and figures are rounded to whole units.
Hep-G2 cells (ECACC, 85011430) were passaged in flasks and seeded in 24-well plates in DMEM containing antibiotics and supplemented with 10% FBS. During inoculation and subsequent incubation, cells were cultured in DMEM containing 2% FBS. 100 plaque forming unit/well of RSV (RSV A2 ECACC, 0709161v) was mixed with eight serial dilutions of compound. Subsequently, 100 μL of the virus/compound mixtures was added to confluent Hep-G2 cell monolayers. The cells and virus/compound mixtures were incubated at 37° C. in a humidified 5% CO2 incubator for 2 h prior to removal of the inoculum and addition of 1 mL of overlay (DMEM containing 2% FBS and 0.8% CMC) containing compound dilutions. The cells and were incubated at 37° C. in a humidified 5% CO2 incubator for 2 days.
Cells were washed with PBS before adding 75/25% […] EtOH/MeOH, for 3 min. Fixative was removed and plates were washed with PBS. A pre-titrated amount of the primary antibody was added in 200 μL PBS/2% milk powder, and plates incubated for 90 min at 37° C. The plates were washed 3 times with PBS/0.05% Tween20 before addition of rabbit anti-goat horse radish peroxidase in 200 μL PBS/2% milk powder, and incubated for 1 h at 37° C. Following three wash steps with PBS/0.05% Tween20, 200 μL ready-to-use TrueBlue was added and plates were incubated at rt for 10-15 min before washing with water. After removal of water, plates were air-dried in the dark.
(§2) Plates were scanned and analysed using the Immunospot S6 Macro analyser, which is equipped with BioSpot analysis software for counting immunostained plaques (virospots). Plaque counts were used to calculate % c infection relative to the mean of the plaque count in the virus control wells for RSV. The EC50 value was calculated as 50% reduction in signal, respectively, by interpolation of inhibition curves fitted with a 4-parameter nonlinear regression with a variable slope in Dotmatics. Plaque EC50 and cell toxicity CC50 values are a mean of at least two experiments and figures are rounded to whole units.

Cell cytotoxicity (CC50) = format: cell-based; details: human; mean of at least two experiments
Text: as §1, §2

Row | SMILES | EC50 (RSV A2) [nM] | CC50 (Cell cytotoxicity (CC50)) [µM]
1 | Cc1cc(-c2nc3ccc(C)nn3c2C(=O)N[C@H]2N=C(c3ccccc3)c3ccccc3NC2=O)ccn1 [Example 97, 6-Methyl-2-(2-methylpyridin-4-yl)-N-[(3S)-2-oxo-5-phenyl-1,3-dihydro-1,4-benzodiazepin-3-yl]imidazo[1,2-b]pyridazine-3-carboxamide] | 49 | > 25
2 | CC(C)(O)Cc1ccc(-c2nn3cccnc3c2C(=O)N[C@H]2N=C(c3ccccc3)c3cccc(F)c3NC2=O)cn1 [Example 77, 2-[6-(2-Hydroxy-2-methylpropyl)pyridin-3-yl]-N-[(3S)-9-fluoro-2-oxo-5-phenyl-1,3-dihydro-1,4-benzodiazepin-3-yl]pyrazolo[1,5-a]pyrimidine-3-carboxamide] | 104 | > 25
3 | Cc1ccc(F)c(-c2nn3cccnc3c2C(=O)N[C@H]2N=C(c3ccccc3)c3ccccc3NC2=O)c1 [Example 25, 2-(2-Fluoro-5-methylphenyl)-N-[(3S)-2-oxo-5-phenyl-1,3-dihydro-1,4-benzodiazepin-3-yl]pyrazolo[1,5-a]pyrimidine-3-carboxamide] | 116 | 15.4
4 | CC(C)Oc1ccc(-c2nn3cccnc3c2C(=O)N[C@H]2N=C(c3ccccc3)c3ccccc3NC2=O)c(F)c1 [Example 15, 2-(2-Fluoro-4-propan-2-yloxyphenyl)-N-[(3S)-2-oxo-5-phenyl-1,3-dihydro-1,4-benzodiazepin-3-yl]pyrazolo[1,5-a]pyrimidine-3-carboxamide] | 91 | > 25
5 | COc1cccc(-c2nn3cccnc3c2C(=O)N[C@H]2N=C(c3ccccc3)c3cccc(F)c3NC2=O)c1F [Example 9, 2-(2-Fluoro-3-methoxyphenyl)-N-[(3S)-9-fluoro-2-oxo-5-phenyl-1,3-dihydro-1,4-benzodiazepin-3-yl]pyrazolo[1,5-a]pyrimidine-3-carboxamide] | 73 | > 25
6 | O=C(N[C@H]1N=C(c2ccccc2)c2ccccc2NC1=O)c1c(-c2cc(F)ccc2F)nn2cccnc12 [Example 6, 2-(2,5-Difluorophenyl)-N-[(3S)-2-oxo-5-phenyl-1,3-dihydro-1,4-benzodiazepin-3-yl]pyrazolo[1,5-a]pyrimidine-3-carboxamide] | 94 | > 25
7 | O=C(N[C@H]1N=C(c2ccccc2)c2cccc(F)c2NC1=O)c1c(-c2ccccc2)nc2ccc(N3C[C@H]4C[C@@H]3CO4)nn12 [Example 82, N-[(3S)-9-fluoro-2-oxo-5-phenyl-1,3-dihydro-1,4-benzodiazepin-3-yl]-6-[(1R,4R)-2-oxa-5-azabicyclo[2.2.1]heptan-5-yl]-2-phenylimidazo[1,2-b]pyridazine-3-carboxamide] | 81 | > 25
8 | CCc1ccc(-c2nc3ccc(OC)nn3c2C(=O)N[C@H]2N=C(c3ccccc3)c3cccc(F)c3NC2=O)cn1 [Example 121, 2-(6-Ethylpyridin-3-yl)-6-methoxy-N-[(3S)-9-fluoro-2-oxo-5-phenyl-1,3-dihydro-1,4-benzodiazepin-3-yl]imidazo[1,2-b]pyridazine-3-carboxamide] | 42 | > 25
9 | COc1nc(C)ccc1-c1nn2cccnc2c1C(=O)N[C@H]1N=C(c2ccccc2)c2ccccc2NC1=O [Example 86, 2-(2-Methoxy-6-methylpyridin-3-yl)-N-[(3S)-2-oxo-5-phenyl-1,3-dihydro-1,4-benzodiazepin-3-yl]pyrazolo[1,5-a]pyrimidine-3-carboxamide] | 119 | > 25
10 | COc1ccc2nc(-c3ccc(C)cn3)c(C(=O)N[C@H]3N=C(c4ccccc4)c4cccc(F)c4NC3=O)n2n1 [Example 120, N-[(3S)-9-fluoro-2-oxo-5-phenyl-1,3-dihydro-1,4-benzodiazepin-3-yl]-6-methoxy-2-(6-methyipyridin-3-yl)imidazo[1,2-b]pyridazine-3-carboxamide] | 101 | > 25
